Experimental data from PMC7738871, “Covalent modification of Keap1 at Cys77 and Cys434 by pubescenoside a suppresses oxidative stress-induced NLRP3 inflammasome activation in myocardial ischemia-reperfusion injury” (Theranostics, 2021).

Key:
[1] = system: Nrf2; experiment: Nrf2 expression in cardiomyocytes under OGD/R; type: cell-based; conditions: cardiomyocytes under OGD/R condition
Description: Total protein was isolated from H9c2 cells, primary mouse cardiomyocytes, RAW264.7 cells and heart tissue using 1X RIPA buffer containing phosphatase and proteinase inhibitors at 4 °C. After measurement of the concentration, the cell lysates were separated by sodium dodecyl sulphate polyacrylamide gel electrophoresis (SDS-PAGE) and transferred to polyvinylidene fluoride (PVDF) membranes. The membranes were blocked in Tris-buffered saline-Tween 20 (TBST) buffer with 5% BSA for 1 h and incubated with primary antibodies (1:1000 dilution) overnight at 4 °C. After the membranes was washed by TBST buffer for three times, they were incubated with horseradish peroxidase (HRP)-conjugated secondary mouse or rabbit antibodies (1:3,000 dilution) at room temperature (RT) for 1.5 h and then detected by SuperEnhanced chemiluminescence (ECL) reaction reagents (GBCBIO Technologies Inc., Guangzhou, Guangdong, China). In brief, drop evenly the ECL working liquid onto the membrane at the ratio of 1 mL ECL working liquid and 10 cm^2 of membrane. After letting the membranes stand for 1-2 min, the bands of the respective proteins were detected with the exposure time of 10 ~60 s.

[2] = system: RAW264.7 macrophages; experiment: MTT cytotoxicity, RAW264.7; type: cell-based; conditions: RAW264.7, under 240 μM, 48 h
Description: Cell viability was determined by MTT assays. PBA was prepared to a stock solution dissolved in dimethyl sulfoxide (DMSO). RAW264.7, H9c2 cells, primary mouse cardiomyocytes were treated with different doses of PBA, and DMSO only as control for 48 h for the toxicity. In addition, H9c2 cells or primary mouse cardiomyocytes were treated with the indicated doses of PBA, diazoxide as positive control, DMSO only as control, then cultured with or without OGD/R treatment. At the end of the experiments, MTT was added into each well at the concentration of 0.5 mg/ml, and incubated at 37 °C for 4 h. After removal of the supernatant, 150 μL of DMSO was added to solubilize the formazan products. And the solution was measured at the absorbance of 490 nm by a spectrophotometer (Thermo Fisher Scientific, MA, USA). The results of the MTT assay in all groups were normalized to the control group with DMSO only treatment.

[3] = system: LAD-induced myocardial ischemia-reperfusion model in mice; experiment: LAD-induced myocardial ischemia-reperfusion model; type: in vivo, mouse
Description: The experimental procedures and protocols were approved by the Committee on Ethical USE of Animals of International Institute for Translational Chinese Medicine, Guangzhou University of Chinese Medicine (No. IITCM-20180115). Adult male C57BL/6 mice were purchased from the Laboratory Animal Center, Sun Yat-Sen University (Guangzhou, Guangdong, China), and Nrf2 knockout mice were obtained from Riken. Adult male C57BL/6 or Nrf2 knockout mice were treated with 30 mg/kg PBA or an equal volume of vehicle 15 min prior to reperfusion. Mice were divided into 6 groups: (1) Wild-type sham (n = 10): C57BL/6 mice received vehicle, as the sham group; (2) Wild-type AMI/R group (n = 10): C57BL/6 mice received vehicle (i.p.) 15 min before reperfusion; (3) Wild-type AMI/R plus PBA group (n = 10): C57BL/6 mice received 30 mg/kg PBA (i.p.) 15 min before reperfusion; (4) Nrf2 knockout sham (n = 8) : Nrf2 knockout mice received vehicle (i.p.), as in the sham group; (5) Nrf2 knockout AMI/R group (n = 8): Nrf2 knockout mice received vehicle (i.p.) 15 min before reperfusion; (6) Nrf2 knockout AMI/R plus PBA group (n = 8): Nrf2 knockout mice received 30 mg/kg PBA (i.p.) 15 min before reperfusion. PBA was dissolved in 0.9% NaCl buffer containing 2% EtOH. The vehicle was 0.9% NaCl buffer containing 2% EtOH.
The C57BL/6 mice or Nrf2 knockout mice underwent myocardial ischemia-reperfusion injury as described previously. In brief, mice were anaesthetized by i.p. injection of sodium pentobarbital at a dose of 50 mg/kg and ventilated under a pressure-control VentStar R415 ventilator (RWD Life Science Inc., Shenzhen, China). Following thoracotomy between the 3rd and 4th intercostal spaces, the mouse heart was exposed. The LAD was ligated with an 8-0 silk suture and the PE10 tube for 30 min. PBA and vehicle were i.p. injected 15 min prior to reperfusion. After 30 min of ischemia, the suture with PE10 tube was removed. At the end of 24 h of reperfusion, the LAD was relegated, and 1% Evans blue dye was injected to measure the area at risk (AAR). The hearts of the mice were collected, and frozen at -80 °C for 10 min and cut into 5 slices. The slices were incubated with 1% 2,3,5-triphenyltetrazolium chloride (TTC, Santa Cruz, USA) at 37 °C for 15 min and fixed with 4% paraformaldehyde overnight. The slices were captured and the areas of AAR and IA were quantified by using ImageJ software.
Hemodynamic measurements were performed using a PV-loop catheter (Transonic Systems Inc., Ithaca, NY, USA). Hemodynamic measurements were analysed using Ponemah 7700 modules software according to a standardized protocol. The maximum rate of rise of left ventricular pressure increase (+dp/dtmax) and the maximum rate of rise of left ventricular pressure decrease (-dp/dtmax) were calculated for all mice.
Echocardiography was performed on mice at the end of reperfusion. In brief, mice were re-anesthetized with isoflurane and subjected to the Vevo 2100 System (VisualSonics Inc., Toronto, Canada). M-mode was used to obtain LV dimensions in diastole and systole according to the standard procedures and calculations. Left ventricular end systolic diameter (LVESD), left ventricular end diastolic diameter (LVEDD), left ventricular end systolic volume (LVSV) and left ventricular end diastolic volume (LVDV) were measured. And the left ventricular ejection fraction (LVEF) and left ventricular fractional shortening (LVFS) values were calculated using Vevostrain software as parameters indicating cardiac function.

[4] = system: ROS in RAW264.7 cells; experiment: Intracellular ROS (DCFH-DA), LPS plus ATP macrophages; type: cell-based
Description: The fluorescent probe DCFH-DA was used to measure intracellular ROS levels. RAW264.7 cells were treated with 100 μg/mL LPS plus ATP as mentioned above. H9c2 cells underwent OGD/R. After the appropriate treatment, the cells were incubated with DCFH-DA at a concentration of 10 μM for 30 min. The cells were washed with PBS three times. A fluorescence microscope and microplate reader were used to measure the level of DCFH-DA fluorescence at the excitation wavelength of 488 nm and the emission wavelength of 525 nm.

[5] = 30 mg/kg i.p., 24 hours after AMI/R

C=C(COC(=O)C=Cc1ccc(O)c(O)c1)C(O)COC1OC(CO)C(O)C(O)C1O (centres unmarked) [PBA, pubescenoside A]
Nrf2 expression [1]: strongly induced | cell toxicity (MTT) [2]: did not exhibit any cell toxicity | myofibrillar structure (H&E staining) ([3]; 30 mg/kg): preserved myofibrillar structure | recruitment of inflammatory cells (H&E staining) ([3]; 30 mg/kg): reduced the recruitment of inflammatory cells | cardiac infarct size ([3]; 30 mg/kg i.p. 15 min before reperfusion, 30 min ischemia, 24 h reperfusion): significantly reduce | level of CK-MB ([3]; 30 mg/kg i.p., 30 min ischemia, 24 h reperfusion, blood, ELISA): significantly reduce | +dp/dtmax [3, 5]: increasing | -dp/dtmax [3, 5]: increasing | LVEF [3, 5]: increasing | LVESD [3, 5]: decreasing | LVFS [3, 5]: increasing | LVSV [3, 5]: decreasing | NLRP3 inflammasome activation in heart tissue ([3]; AMI/R-injured mice, western blot): attenuated | LPS plus ATP-induced ROS [4]: significantly suppress
